Experimental data reported in patent US11489184B2, “Electrolyte including mixture of active material and precursor thereof” (Foundation for Research and Business, Seoul National …, priority 2020, dated 2022).
Converted amounts (≈) assume the structure as drawn.

What was measured:
Format in all cases: physicochemical
[1] = Half-cell cyclic voltammetry, kinetic parameters of NQ derivatives; settings: 0.01 M in 1 M KOH; for redox potential difference (average difference of anodic and cathodic redox potentials, ΔEp,avg): glassy carbon electrode, scan rate 10 to 100 mV·s^−1
Description: To observe electrochemical performance of active species, various half-cell tests were performed as follows by using a computer connected potentiostat (SP-240, BioLogic). Ag/AgCl (soaked in 3.0 M NaCl) and Pt wire were used as a reference electrode and a counter electrode, respectively. […] To this end, kinetic parameters of NQ derivatives were measured and compared. To calculate electrochemical properties of NQ derivatives, the CV curves were used. […] A value of D was measured by a Randles-Sevick's equation.

[2] = Solubility analysis of NQ derivatives in KOH by UV-vis spectroscopy; settings: 1 M KOH solution, aqueous buffer, thermodynamic from solid, stirred for 24 hours, upper part measured by UV-vis, substance alone
Description: Excessive amounts of solutions of NQ derivatives were prepared. […] When a further period of time elapsed after stirring was stopped, each solution was divided into two parts (upper and lower parts). 400 microliters (L) of the upper part of the solution was collected and observed by a UV-vis spectrometer. An absorbance was measured to determine concentrations of NQ derivatives.
As a control group, a solution with a known concentration of Lawsone was prepared, and UV-vis spectroscopy of the solution was measured. When absorbance peaks of the control group and a sample of NQ derivatives were compared, concentrations of the samples were calibrated and calculated.

[3] = Analysis of reaction of NQ-S to NQ-OH in KOH (cyclic voltammetry and UV-vis spectroscopy); settings: 0.01 M in 1 M KOH, CV; for redox potential: NQ-S right after dissolution
Description: Initially, 0.01 M NQ-S was dissolved in 1 M KOH and then the NQ-S solution was stayed for few hours. Changes in a chemical structure of the NQ-S solution were observed using cyclic voltammetry and UV-vis spectroscopy.
For the UV-vis spectroscopy, the following three samples were prepared: (i) NQ-S that is just dissolved in KOH (sample 1); (ii) NQ-S dissolved in KOH for 6 hours (sample 2); and (iii) pristine Lawsone (sample 3). In FIG. 2B, a peak observed at 455 nm corresponds to a peak for NQ-OH, and the peak was clearly observed in sample 2.

[4] = Analysis of ratio of Lawsone and NQ-S (CV curves); settings: 0.1 M NQ-S dissolved in 1 M KOH (one third transformed)
Description: Samples of Lawsone and NQ-S having different ratios were prepared, and a resistance and a solubility of samples were measured electrochemically (by cyclic voltammetry (CV) and electrochemical impedance spectroscopy (EIS)) and optically (by UV-vis spectroscopy).
[…]; (iv) only Lawsone (0.3 M Lawsone); and (v) only NQ-S (0.3 M NQ-S).

O=C1C=C(O)C(=O)c2ccccc21 [Lawsone, 2-hydroxy-1,4-naphthoquinone, reference compound]
diffusion coefficient D ([1]; CV, Randles-Sevick's equation): 1.75·10^−6 cm^2·s^−1
redox potential difference (average difference of anodic and cathodic redox potentials, ΔEp,avg) [1]: 0.077 V
solubility at 24 h [2]: 420 mM (≈ 73.1 mg/mL)
redox potential [3]: −0.55 V vs Ag/AgCl

O=C1C=C(S(=O)(=O)[O-])c2ccccc2C1=O.[Na+] [NQ-S, 1,2-naphthoquinone-4-sulfonic acid sodium salt]
redox potential difference (average difference of anodic and cathodic redox potentials, ΔEp,avg) [1]: 0.077 V
desirable NQ-OH formed by transformation of NQ-S [4]: 0.033 M
transformation of NQ-S into NQ-OH in KOH ([3]; staying time 6 hours): completely transformed into NQ-OH
redox potential [3]: −0.1 V vs Ag/AgCl
